Consider 15 compounds from patent US20240327414A1, “CYCLOPROPYL-(HETERO)ARYL-SUBSTITUTED ETHYL- SULFONE / SULFOXIMINE-PYRIDINE N-OXIDE DERIVATIVES” (Boehringer Ingelheim Vetmedica GmbH, priority 2023, published 2024).

Assay [1] deals with adult C. felis fleas. The assay can be described thus: Ingestion activity against adult Ctenocephalides felis (alternative method, membrane feeding, mortality). The following applies: bovine blood, mortality at 48 hours post-treatment. Here is the method:
Selected N-oxide compounds of formula (I), (Ia) and (Ib) and compound “P23” of WO 2016/030229 dissolved in 100% DMSO are diluted in bovine blood with sodium heparin anti-coagulant. The resulting formulation is offered via an artificial membrane feeding system to approximately 15 adult C. felis fleas previously dispensed into 24-well plates. The plates are then incubated in a double-chambered device. Visual evaluation for mortality is performed at 48 hours post-treatment. Compound efficacy at a given dose is expressed as percentage mortality and determined by normalization to positive and negative controls. A dose response series is implemented to determine EC50 values.
Example 7: Screening Method to Test Ingestion Activity of N-Oxide Compounds of Formula (I), (Ia) or (Ib) Against Adult Ctenocephalides felis (Alternative Method)
N-oxide compounds of formula (I), (Ia) and (Ib) dissolved in 100% DMSO are diluted in bovine blood with sodium heparin anti-coagulant. The resulting formulation is offered via an artificial membrane feeding system to approximately 15 adult C. felis fleas previously dispensed into 24-well plates. The plates are then incubated in a double-chambered device. Visual evaluation for mortality is performed at 48 hours post-treatment. Compound efficacy at a given dose is expressed as percentage mortality and determined by normalization to positive and negative controls. A dose response series is implemented to determine EC50 values.
The structurally closest prior art compound “P23” of WO 2016/030229 is characterized vis-à-vis selected N-oxide compounds of formula (I), (Ia) and (Ib) with regard to their potency in in vitro screening assay to test ingestion activity against adult fleas (Ctenocephalides felis) (alternative method according to Example 7).

The test system of assay [2] is Plutella xylostella. Nature of the assay: Insecticidal test on Plutella xylostella. The class given is in vivo. The following applies: 144 h, Chinese cabbage seedling dip, 6 days after the dip treatment, read-out: activity level (corrected mortality rate). How it is done: Example 15: Insecticidal Test on Plutella xylostella
The N-oxide compounds of formula (I), (Ia) and (Ib) of the present invention or salts thereof are separately dispersed in water and diluted to 500 ppm. Ten adults of Plutella xylostella are released onto Chinese cabbage seedlings and allowed to lay eggs thereon. 2 days after the release of the adults, the seedling is dipped in the dispersion for about 30 seconds. After air dried, the seedling is kept in a room at 25° C. 6 days after the dip treatment, the numbers of the dead and alive insects are counted. The corrected mortality rate is calculated according to the following formula and the insecticidal activity is evaluated according to the following criteria.
(§1) [formula] [formula] • A: the corrected mortality rate is 100% • B: the corrected mortality rate is 90 to 99% • C: the corrected mortality rate is 80 to 89% • D: the corrected mortality rate is 50 to 79%

Assay [3] concerns adult Ctenocephalides felis fleas. Nature of the assay: Contact activity against adult Ctenocephalides felis. Particulars: adult C. felis, mortality at 72 hours post-treatment. How it is done:
Example 4: Screening Method to Test Contact Activity of N-Oxide Compounds of Formula (I), (Ia) or (Ib) Against Adult Ctenocephalides felis
N-oxide compounds of formula (I), (Ia) and (Ib) dissolved in 100% DMSO are diluted in acetone to a desired concentration. The resulting formulation is used to coat the fibers of a 0.5-inch-long piece of pipe cleaner placed in a glass scintillation vial. The vial is capped with a rubber gasket and filter paper insert. After the acetone has evaporated, ten adult Ctenocephalides felis fleas are added to each vial. The vials are then incubated at 22° C., 80% relative humidity, and 12 hours of light/12 hours of dark until a visual evaluation for mortality is performed at 72 hours post-treatment. Compound efficacy at a given dose is expressed as percentage mortality and adjusted to remove background mortality observed in control vials containing DMSO only. A dose response series of treated vials is implemented to determine EC50 values.

Assay [4] deals with adult C. felis fleas. Nature of the assay: Ingestion activity against adult Ctenocephalides felis (membrane feeding, motility). Particulars: 48 h, ingestion in bovine blood, % motility reduction 48h post treatment. How it is done:
Example 6: Screening Method to Test Ingestion Activity of N-Oxide Compounds of Formula (I), (Ia) or (Ib) Against Adult Ctenocephalides felis
N-oxide compounds of formula (I), (Ia) and (Ib) dissolved in 100% DMSO are added to bovine blood and offered via an artificial membrane feeding system to adult C. felis fleas. The motility of fleas is then visually inspected 48h post treatment. Efficacy is expressed in % motility reduction compared to controls containing blood treated with DMSO only. A dose response series is implemented to determine EC50 values.

Assay [5] concerns Laodelphax striatellus. Nature of the assay: Insecticidal test on Laodelphax striatellus. The class given is in vivo. The following applies: 192 h, rice seedling dip, 3rd-instar nymphs, 8 days after inoculation, read-out: activity level (corrected mortality rate). Here is the method:
Example 16: Insecticidal Test on Laodelphax striatellus
The N-oxide compounds of formula (I), (Ia) and (Ib) of the present invention or salts thereof are separately dispersed in water and diluted to 500 ppm. Rice plant seedlings are dipped in the dispersion for about 30 seconds. After air dried, the seedlings are put into a separate glass test tube and inoculated with ten 3rd-instar nymphs of Laodelphax striatellus and then the glass test tube is kept in a room at 25° C. 8 days after the inoculation, the numbers of the dead and alive insects are counted. The corrected mortality rate is calculated according to the following formula and the insecticidal activity is evaluated according to the following criteria.
as §1

Assay [6] relates to Spodoptera litura. The assay can be described thus: Insecticidal test on Spodoptera litura. Particulars: foliar, 192 h, cabbage leaf dip, 2nd-instar larvae, 8 days after inoculation, read-out: activity level (corrected mortality rate). The class given is in vivo. How it is done: Example 14: Insecticidal Test on Spodoptera litura
The N-oxide compounds of formula (I), (Ia) and (Ib) of the present invention or salts thereof are separately dispersed in water and diluted to 500 ppm. Cabbage leaves are dipped in the dispersion for about 30 seconds. After air dried, the leaves are placed in a plastic Petri dish with a diameter of 9 cm and inoculated with ten 2nd-instar larvae of Spodoptera litura, after which the dish is closed and then allowed to stand in a room at 25° C. 8 days after the inoculation, the numbers of the dead and alive insects are counted. The corrected mortality rate is calculated according to the following formula and the insecticidal activity is evaluated according to the following criteria.
as §1

In assay [7] the test system is A. aegypti L1 larvae. Nature of the assay: Screening against larvae of Aedes aegypti. The following applies: 48 h at 27° C., percentage of mortality. How it is done:
Example 3: Screening Method to Test Activity of N-Oxide Compounds of Formula (I), (Ia) or (Ib) Against Larvae of Aedes aegypti
Eight A. aegypti L1 larvae in a total volume of 64 μL water are added to 384-well microplates containing N-oxide compounds of formula (I), (Ia) and (Ib) formulated in 100% DMSO. The plates are incubated for 48 h at 27° C. Individual well images are acquired and analyzed using a pipeline to quantitatively assess the amount of larvae biomass accumulating at the bottom of the well. The efficacy of a compound at a given dose is expressed as “percentage of mortality” and determined by comparison to average biomass descriptors of positive and negative control wells containing 1.0 μM Fipronil or DMSO only, respectively. Dose response assay are conducted to determine an EC50 value.

For assay [8], the system named is adult R. sanguineus ticks. Nature of the assay: Contact activity against adult Rhipicephalus sanguineus. The following applies: mortality at 48 hours post-treatment. Here is the method: Example 5: Screening Method to Test Contact Activity of N-Oxide Compounds of Formula (I), (Ia) or (Ib) Against Adult Rhipicephalus sanguineus
N-oxide compounds of formula (I), (Ia) and (Ib) formulated in 100% DMSO are diluted in a solution containing acetone and Triton X-100 (0.02%). The resulting formulation is used to coat the inner walls of glass scintillation vials and the filter paper covering the cap of the vial. Once dried, ten adult R. sanguineus ticks are added to the vials. The vials are incubated at 24° C., 95% relative humidity, and 12 hours of light/12 hours of dark until evaluation. Ticks are visually evaluated for mortality at 48 hours post-treatment. Compound efficacy at a given dose is expressed as percentage mortality. A dose response series was implemented to determine EC50 values.

Structures are written as SMILES.

Turning to `CCS(=O)(=O)c1cc(-c2noc(C3CC3)n2)cnc1-c1nc2cc(C(F)(F)C(F)(F)F)n[n+]([O-])c2n1C` [Compound 1, 6-[5-(5-cyclopropyl-1,2,4-oxadiazol-3-yl)-3-(ethanesulfonyl)pyridin-2-yl]-7-methyl-3-(1,1,2,2,2-pentafluoroethyl)-7H-imidazo[4,5-c]pyridazin-1-ium-1-olate], the EC50 (in general, the concentration that produces a half-maximal response) in assay [1] is 0.783 µM; in assay [3], 10 to 100 µM; in assay [4], below 10 µM. Further, the mortality at 500 ppm in assay [2] and in assay [5] was 100% each time.

With `CCS(=O)(=O)c1cc(-c2noc(C3CC3)n2)cnc1-c1nc2cc(C(F)(F)C(F)(F)F)[n+]([O-])nc2n1C` [Compound 2, 6-[5-(5-cyclopropyl-1,2,4-oxadiazol-3-yl)-3-(ethanesulfonyl)pyridin-2-yl]-7-methyl-3-(1,1,2,2,2-pentafluoroethyl)-7H-imidazo[4,5-c]pyridazin-2-ium-2-olate], the EC50 in assay [3] was 10 to 100 µM; in assay [4], below 10 µM.

As to `CCS(=O)(=O)c1cc(-c2noc(C3CC3)n2)c[n+]([O-])c1-c1nc2cc(C(F)(F)C(F)(F)F)nnc2n1C` [Compound 3, 5-(5-cyclopropyl-1,2,4-oxadiazol-3-yl)-3-(ethanesulfonyl)-2-[7-methyl-3-(1,1,2,2,2-pentafluoroethyl)-7H-imidazo[4,5-c]pyridazin-6-yl]pyridin-1-ium-1-olate], the EC50 in assay [4] is below 10 µM.

In turn, `CCS(=O)(=O)c1cc(-c2noc(C3CC3)n2)c[n+]([O-])c1-c1nc2cc(C(F)(F)C(F)(F)F)n[n+]([O-])c2n1C` [Compound 4, 5-(5-cyclopropyl-1,2,4-oxadiazol-3-yl)-3-(ethanesulfonyl)-2-[7-methyl-1-oxido-3-(1,1,2,2,2-pentafluoroethyl)-7H-imidazo[4,5-c]pyridazin-1-ium-6-yl]pyridin-1-ium-1-olate] came in with an EC50 in assay [4] of 10 to 100 µM.

In assay [1], `CCS(=O)(=O)c1cc(-c2noc(C3(C(F)(F)F)CC3)n2)cnc1-c1n(C)c2ncc(C(C)(F)F)cc2[n+]1[O-]` [Compound 7] came in with an EC50 of 0.41 µM.

With `CCS(=O)(=O)c1cc(-c2noc(C3(C(F)(F)F)CC3)n2)cnc1-c1nc2cc(C(C)(F)F)n[n+]([O-])c2n1C` [Compound 8], the values for the half-maximal effective concentration (EC50) in assay [1], in assay [3] and in assay [4] were 0.141 µM, 10 to 100 µM and below 10 µM, respectively. In addition, the mortality at 500 ppm in assay [2], in assay [6] and in assay [5] was 100% each time.

For `CCS(=O)(=O)c1cc(-c2ccc(C3CC3)cc2)c[n+]([O-])c1-c1nc2cc(C(F)(F)C(F)(F)F)cnc2n1C` [Compound 23], the concentration for a half-maximal effect (EC50) in assay [4] lay in the range of 10 to 100 µM.

For `CCS(=O)(=O)c1cc(-c2ccc(C3(F)CC3)cc2)c[n+]([O-])c1-c1nc2cc(C(F)(F)C(F)(F)F)nnc2n1C` [Compound 27], the EC50 in assay [1] was 0.46 µM; in assay [4], below 10 µM; in assay [7], below 0.04 µM. Moreover, the mortality at 500 ppm in assay [2] and in assay [5] was 100% in each case.

Regarding `CCS(=O)(=O)c1cc(-c2cc(C3CC3)ccn2)cnc1-c1nc2cc(C(F)(F)C(F)(F)F)c[n+]([O-])c2n1C` [Compound 29], the 50% effective concentration (EC50) in assay [4] is 10 to 100 µM; in assay [7] it was 0.04 to 0.05 µM.

Turning to `CCS(=O)(=O)c1cc(-c2noc(C3CC3)n2)cnc1-c1nc2cc(C(F)(F)C(F)(F)F)c[n+]([O-])c2n1C` [Compound 33], the EC50 in assay [1] is 0.889 µM; in assay [8], 10 to 100 µM; in assay [3], below 10 µM; in assay [4] it was below 10 µM. Also, the mortality at 500 ppm in assay [2] and in assay [5] was 100% throughout.

As for `CCS(=O)(=O)c1cc(-c2ccc(C3(F)CC3)cc2)cnc1-c1nc2cc(C(F)(F)C(F)(F)F)n[n+]([O-])c2n1C` [Compound 36], the 50% effective concentration (EC50) in assay [1] is 1.06 µM; in assay [8], 10 to 100 µM; in assay [4] it was 10 to 100 µM; in assay [7] it was below 0.04 µM. In addition, the mortality at 500 ppm in assay [2] and in assay [5] was 100% each time.

`CCS(=O)(=O)c1cc(-c2noc(C3CC3)n2)cnc1-c1nc2cc(C(C)(F)F)n[n+]([O-])c2n1C` [Compound 39] yielded an EC50 in assay [1] of 0.454 µM. The mortality at 500 ppm in assay [2] and in assay [5] was 100% in each case.

As to `CCS(=O)(=O)c1cc(-c2noc(C3CC3)n2)cnc1-c1nc2cc(C(C)(F)F)[n+]([O-])nc2n1C` [Compound 40], in assay [1], the EC50 amounted to 0.807 µM.

As to `CCS(=O)(=O)c1cc(-c2ccc(C3(C#N)CC3)cc2)c[n+]([O-])c1-c1nc2cc(C(F)(F)F)cn(CC(F)F)c-2c1F` [Compound 44, 5-[4-(1-cyanocyclopropyl)phenyl]-2-[4-(2,2-difluoroethyl)-3-fluoro-6-(trifluoromethyl)-4H-pyrrolo[3,2-b]pyridin-2-yl]-3-(ethanesulfonyl)pyridin-1-ium-1-olate], in assay [3], the concentration for a half-maximal effect (EC50) lay within 10 to 100 µM.

As to `CCS(=O)(=O)c1cc(-c2ccc(C3(F)CC3)cc2)c[n+]([O-])c1-c1nc2cc(C(F)(F)C(F)(F)F)n[n+]([O-])c2n1C` [Compound 45], the EC50 is below 10 µM in assay [4] and below 0.04 µM in assay [7].
